Results reported in patent US5817651A, “3-arylcarbonyl-1-(C-attached-N-heteryl)-1H-indoles” (Sanofi, priority 1997, dated 1998).
Where a name gives a salt, the structure may show the parent alone. Read-outs that look alike come from different tables or passages of the source.

Assays:
[1] = test system: mouse vasa deferentia preparation; assay: mouse vas deferens test (MVD); type: cell-based; conditions: inhibition of contractions, in vitro, active at 5.0 μM or less
Text: It has been shown previously that smoking marijuana reduces intraocular pressure in man [Helper and Frank, Marijuana Smoking and Intraocular Pressure., J. Am. Med. Assoc. 217, 1392 (1971)]. Topical application or systemic injection of delta-9 tetrahydrocannabinol, a principal active ingredient in marijuana, also reduces intraocular pressure [Purnell and Gregg, delta-9 Tetrahydrocannabinol, Euphoria and Intraocular Pressure in Man., Ann. Opth. 7, 921-923 (1975); Green and Pederson, Effect of delta-9 Tetrahydrocannabinol on Aqueous Dynamics and Ciliary Body Permeability in the Rabbit Eye., Exptl. Eye Research 15, 499-507 (1973); Colasanti, Craig and Allara, Intraocular Pressure, Ocular Toxicity and Neurotoxicity after Administration of Cannabinol or Cannibigerol, Exptl. Eye Research 39, 252-259 (1984)]. Similarly, synthetic cannabinoids also reduce intraocular pressure [Green, Symunds, Oliver and Elijah, Intraocular Pressure Following Systemic Administration of Cannabinoids., Curr. Eye Research 2, 247-253 (1982); Tiedeman, Shields, Weber, Crow, Coccetto, Harris and Howes, Opthalmology, 88, 270-277 (1981); Colasanti et al., supra]. Cannabinoid receptor binding sites can be defined as those to which radio-labelled 4-(1,1-dimethylheptyl)-2,3'-dihydroxy-6'alpha-(3-hydroxypropyl)-1', 2', 3', 4', 5', 6'-hexahydrobiphenyl (CP 55940) binds in a specific and saturable manner and the binding sites are heterogeneously distributed in the brain [Devane, Dysarz, Johnson, Melvin and Howlett, Determination and Characterization of a Cannabinoid Receptor in Rat Brain, Molecular Pharm. 34, 605-613 (1988)]. Natural and synthetic cannabinoids and certain of the compounds of the present invention, as more particularly described above, bind to CP 55940 binding sites. […] It is believed that agonist activity at the cannabinoid receptor mediates the anti-glaucoma actions of cannabinoids, and that agonist activity at this receptor correlates with ocular pressure lowering actions in man. Accordingly the cannabinoid receptor agonist activity of the compounds of the present invention indicate their usefulness in reducing ocular pressure.

[2] = test system: acetylcholine-induced abdominal constriction; assay: acetylcholine-induced abdominal constriction test (ACH); type: in vivo; design: key to ACH remark (Depr. = depressant): The abbreviations IA and Depr. represent, respectively, inactive and depressant; The abbreviations IA and Depr. represent, respectively, inactive and depressant; conditions: mice; for ED50 / inhibition in vivo at 100 mg/kg: Mus musculus; for inhibition in vivo at 100 mg/kg: dose level 100, read-out: ACH percent inhibition at dose 100
Text: J. Pharmacol. Chemotherap. 32, 295 (1968); a modification of the anti-bradykinin test, which is also a primary analgesic screening procedure, described by Berkowitz et al., J. Pharmacol. Exptl. Therap. 177, 500-508 (1971), Blane et al., J. Pharm. Pharmacol. 19, 367-373 (1967), Botha et al., Eur. J. Pharmacol. 6, 312-321 (1969) and Deffenu et al., J. Pharm. Pharmacol. 18, 135 (1966); and the Randall-Selitto analgesic test described by Randall and Selitto, Arch. Int. Pharmacodyn., 111, 409-419 (1957).
Data in the developing adjuvant arthritis (AA) and plasma fibronectin (FN) assays are expressed as percent inhibition, i.e. inhibition of non-injected paw inflammation (NIP) and injected paw (RPV) and lowering of plasma fibronectin, the asterisks * and ** indicating statistical significance at the p<0.01 and p<0.05 levels, respectively. […] Non-statistically significant results are recorded as "------ ". In the acetylcholine-induced abdominal constriction test, the test compounds were administered either as suspensions in gum tragacanth (GT) or as aqueous solutions prepared by addition of just sufficient dilute aqueous methanesulfonic acid (MS) or dilute aqueous lactic acid (LA) to dissolve the compound. The compounds are identified by the example number above where their preparations are described. All data in the anti-bradykinin, rat writhing and Randall-Selitto tests were obtained on oral administration.

[3] = test system: acetic acid-induced writhing; assay: acetic acid-induced writhing assay in the rat (RW); type: in vivo; conditions: Rattus norvegicus, po, oral administration
Procedure: (§1) Data in the developing adjuvant arthritis (AA) and plasma fibronectin (FN) assays are expressed as percent inhibition, i.e. inhibition of non-injected paw inflammation (NIP) and injected paw (RPV) and lowering of plasma fibronectin, the asterisks * and ** indicating statistical significance at the p<0.01 and p<0.05 levels, respectively. Compounds are considered active at p<0.05 level. Non-statistically significant results are recorded as "------ ". In the acetylcholine-induced abdominal constriction test, the test compounds were administered either as suspensions in gum tragacanth (GT) or as aqueous solutions prepared by addition of just sufficient dilute aqueous methanesulfonic acid (MS) or dilute aqueous lactic acid (LA) to dissolve the compound. The compounds are identified by the example number above where their preparations are described. All data in the anti-bradykinin, rat writhing and Randall-Selitto tests were obtained on oral administration.

[4] = test system: adjuvant induced arthritis; assay: developing adjuvant arthritis (AA) assay; type: in vivo; conditions: arthritic rats; printed * = p<0.01, ** = p<0.05
Procedure: Antirheumatic and anti-inflammatory activities of the compounds of the invention were determined using the developing adjuvant arthritis assay in rats and the plasma fibronectin assay in arthritic rats. The developing adjuvant arthritis assay was used in conjunction with the plasma fibronectin assay as a primary screening method in the evaluation of compounds for potential use as disease modifying anti-rheumatic drugs. The procedure used to induce arthritis in rats is a modification of the methods published by Pearson, J. Chron. Dis. 16, 863-874 (1973) and by Glenn et al., Amer. J. Vet. Res. 1180-1193 (1965). Adjuvant induced arthritis bears many of the traits of rheumatoid arthritis. It is a chronic, progressive, deforming arthritis of the peripheral joints, with a primary mononuclear cell response consisting of bone and joint space invasion by pannus. In order to detect disease modifying anti-rheumatic drug activity, drug treatment is started before the disease has become irrevocably established. Since such drugs are not designed to be administered prophylactically, drug treatment of adjuvant arthritis is initiated at a time when the disease is developing but is not yet irreversible. Animals develop significant systemic arthritic disease which can be measured by swelling of the non-injected rear paw (NIP) 15 to 20 days following an initial injection on day 1 of complete Freund's adjuvant into the right hindfoot paw.
as §1

[5] = Table 9, Examples, no route marked in the cell, read-out: ACH ED50
[6] = iv, Table 9, iv, read-out: ACH ED50 (iv)

SMILES	IC50 ([1]; Mus musculus) [nM]	ED50 [2, 5] [mg/kg]	further results
COc1ccc(C(=O)c2c(C)n(C[C@@H]3CC[C@H](C)N3C)c3ccccc23)cc1 (relative stereo) [Example 1Z]	48	14	ED50 [2, 6]: 3 mg/kg
CN1CCN(C)C(Cn2cc(C(=O)c3cccc4ccccc34)c3ccccc32)C1 (stereo not drawn) [3G (base)]	15	–	–
CN1CC[N+](C)(C)CC1Cn1cc(C(=O)c2cccc3ccccc23)c2ccccc21 (stereo not drawn) [3G (quaternary)]	156	–	–
COc1ccc(C(=O)c2cn(C(C)C3CCCN3C)c3ccccc23)cc1 (stereo not drawn) [Example 1AA]	–	23	ED50 [3]: 20 mg/kg; IC50 [1]: 127 nM; ED50 [2, 6]: 5 mg/kg
CC(C1CCCN1C)n1cc(C(=O)c2ccccc2F)c2ccccc21 (stereo not drawn) [Example 1AC]	111	–	inhibition in vivo at 100 mg/kg ([2]; Table 9): 40%
COc1ccc(C(=O)c2c(C)n(C(C)C3CCCN3C)c3ccccc23)cc1 (stereo not drawn) [Example 1AF]	542	19	–
COc1ccc(C(=O)c2c(C)n(CC3CCC(C)(C)N3C)c3ccccc23)cc1 (stereo not drawn) [Example 1AH]	330	–	–
Cc1c(C(=O)c2cccc3ccccc23)c2ccccc2n1CC1CN(C)CCO1 (stereo not drawn) [Example 1G]	50	–	ED50 [2, 6]: 6 mg/kg; inhibition in vivo at 100 mg/kg ([2]; Table 9): 10%
CN1CCCC(Cn2cc(C(=O)c3cccc4ccccc34)c3ccccc32)C1 (stereo not drawn) [Example 1P]	28	144	NIP: percent inhibition of non-injected paw inflammation [4]: 38%; RPV: percent inhibition of injected paw [4]: 43%
Cc1c(C(=O)c2cccc3ccccc23)c2ccccc2n1C1CCCCN(C)C1 (stereo not drawn) [Example 2AB]	13	–	inhibition in vivo at 100 mg/kg ([2]; Table 9): 30%
CN1CCCCC1Cn1cc(C(=O)c2ccccc2F)c2ccccc21 (stereo not drawn) [Example 2AC]	3	10	ACH remark (Depr. = depressant) ([2]; Table 9, remark beside the ED50): Depr.
O=C(c1cccc2ccccc12)c1cn(CC2CCCCN2Cc2ccccc2)c2ccccc12 (stereo not drawn) [Example 2AM]	51	–	–
O=C(c1cccc2ccccc12)c1cn(C2CCCCN(Cc3ccccc3)C2)c2ccccc12 (stereo not drawn) [Example 2AO]	480	–	–
CN1CCCC1Cn1cc(C(=O)c2ccccc2F)c2ccccc21 (stereo not drawn) [Example 2M]	39	53	–
Cc1c(C(=O)c2cccc3ccccc23)c2ccccc2n1CC1CCCN1C (stereo not drawn) [Example 2Q]	2	–	inhibition in vivo at 100 mg/kg ([2]; Table 9): 20%
CN1CCCCC(n2cc(C(=O)c3cccc4ccccc34)c3ccccc32)C1 (stereo not drawn) [Example 2Z]	82	–	NIP: percent inhibition of non-injected paw inflammation [4]: 65%; ACH percent inhibition at dose 30 (iv) ([2]; Table 9, dose level 30, iv): 80%
O=C(c1cccc2ccccc12)c1cn(CC2COCCN2Cc2ccccc2)c2ccccc12 (stereo not drawn) [Example 3F]	224	–	ED50 [2, 6]: 2.2 mg/kg
CC(C1CCCN(C)C1)n1cc(C(=O)c2ccccc2F)c2ccccc21 (stereo not drawn) [Example 4F]	–	24	ED50 [3]: 6 mg/kg; NIP: percent inhibition of non-injected paw inflammation [4]: 45%; RPV: percent inhibition of injected paw [4]: 27%
O=C(c1cccc2ccccc12)c1cn(CC2CCCCN2)c2ccccc12 (stereo not drawn) [Example 4I]	0.3	–	ACH percent inhibition at dose 30 ([2]; Table 9, dose level 30): 30%
Cc1c(C(=O)c2ccc([S+](C)[O-])cc2)c2ccccc2n1CC1CCCN(C)C1.Cl (stereo not drawn) [Example 6A, 1-[(1-methyl-3-piperidinyl)methyl]-2-methyl-3-(4-methylsulfinylbenzoyl)-1H-indole hydrochloride]	–	9	ED50 [3]: 5 mg/kg; NIP: percent inhibition of non-injected paw inflammation [4]: 93%; RPV: percent inhibition of injected paw [4]: 81%
Cc1c(C(=O)c2ccccc2F)c2ccccc2n1CC1CCC(C)N1 (stereo not drawn) [Example 8E]	160	–	–
O=C(c1cccc(F)c1)c1cn(CC2CCCN2)c2ccccc12 (stereo not drawn) [Example 8F]	325	–	–
O=C(c1cccc2ccccc12)c1cn(CC2COCCN2)c2ccccc12 (stereo not drawn) [Example 8G]	4.7	–	ACH percent inhibition at dose 30 ([2]; Table 9, dose level 30): 100%
COc1ccc(C(=O)c2c(C)n(C3CN(C)C3)c3ccccc23)cc1.O=C(O)/C=C\C(=O)O [Example 10A, 2-methyl-3-(4-methoxybenzoyl)-1-(1-methyl-3-azetidinyl)-1H-indole maleate]	495	40	–
CN1CCOCC1Cn1cc(C(=O)c2cccc3ccccc23)c2ccccc21.Cl (stereo not drawn) [Example 10C, 3-(1-naphthylcarbonyl)-1-[(4-methyl-3-morpholinyl)methyl]-1H-indole hydrochloride]	0.4	–	ACH percent inhibition at dose 30 ([2]; Table 9, dose level 30): 50%
Cc1c(C(=O)c2ccc(O)cc2)c2ccccc2n1CC1CCCN1C (stereo not drawn) [Example 11A, 2-methyl-3-(4-hydroxybenzoyl)-1-[(1-methyl-2-pyrrolidinyl)methyl]-1H-indole hydrochloride]	284	–	–
Cc1c(C(=O)c2ccc(O)cc2)c2ccccc2n1CC1CCC(C)N1C (stereo not drawn) [Example 11B, 2-methyl-3-(4-hydroxybenzoyl)-1-[(1,5-dimethyl-2-pyrrolidinyl)methyl]-1H-indole hydrochloride]	217	–	–
